Values after ≈ are worked out from the molar mass of the structure shown. Read-outs that look alike come from different tables or passages of the source.
Experiments:
Format in all cases: cell-based
[1] = tested on: A. fumigatus GC 3092; experiment: Antifungal activity, microtiter broth dilution MIC; conditions: for ANTIFUNGAL ACTIVITY (MIC): A. fumigatus GC 3092, RPMI 1640, 35° C., 24-48 hours
Method: (§1) The antifungal activity for the 1-oxorapamycins of this invention was confirmed in a standard pharmacological test procedure which measured the ability of the compound being evaluated to inhibit fungal growth. 1-Oxorapamycin (Compound I), 1-oxorapamycin 42-ester with 3-hydroxy-2-(hydroxymethyl)-2-methylpropionic acid (Compound II), and 42-O-(2-hydroxy)ethyl 1-oxorapamycin (Compound III) were evaluated as representative compounds of this invention. The procedure used and results obtained are briefly described below. A 96 U-bottom microtiter plate was filled (50 μl/well) with RPMI 1640. The compounds to be evaluated were placed in appropriate wells, and serial diluted in successive wells to provide 11 dilutions. The concentrations ranged from 64 through 0.06 μg/ml. An adjusted inoculum of fungi (50 μl) was added to each well and the plates were incubated at 35° C. for 24-48 hours. […] Nystatin and rapamycin were used for the purpose of comparison.

[2] = tested on: A. niger GC 3091; experiment: Antifungal activity, microtiter broth dilution MIC; conditions: 24-48 hours; for ANTIFUNGAL ACTIVITY (MIC): RPMI 1640, 35° C.
Method: as §1

[3] = tested on: A. niger GC 6591; experiment: Antifungal activity, microtiter broth dilution MIC; conditions: 24-48 hours; for ANTIFUNGAL ACTIVITY (MIC): RPMI 1640, 35° C.
Method: as §1

[4] = tested on: C. albicans GC 3064; experiment: Antifungal activity, microtiter broth dilution MIC; conditions: 24-48 hours; for ANTIFUNGAL ACTIVITY (MIC): RPMI 1640, 35° C.
Method: as §1

[5] = tested on: C. albicans GC 3065; experiment: Antifungal activity, microtiter broth dilution MIC; conditions: 24-48 hours; for ANTIFUNGAL ACTIVITY (MIC): RPMI 1640, 35° C.
Method: as §1

[6] = tested on: C. albicans GC 3066; experiment: Antifungal activity, microtiter broth dilution MIC; conditions: 24-48 hours; for ANTIFUNGAL ACTIVITY (MIC): RPMI 1640, 35° C.
Method: as §1

[7] = tested on: C. krussii GC 3067; experiment: Antifungal activity, microtiter broth dilution MIC; conditions: RPMI 1640, 35° C., 24-48 hours
Method: as §1

[8] = tested on: C. lusitaniae GC 3068; experiment: Antifungal activity, microtiter broth dilution MIC; conditions: RPMI 1640, 35° C., 24-48 hours; for MIC: Clavispora lusitaniae
Method: as §1

[9] = tested on: C. parapsilosis GC 3074; experiment: Antifungal activity, microtiter broth dilution MIC; conditions: 24-48 hours; for ANTIFUNGAL ACTIVITY (MIC): RPMI 1640, 35° C.
Method: as §1

[10] = tested on: C. parapsilosis GC 3075; experiment: Antifungal activity, microtiter broth dilution MIC; conditions: 24-48 hours; for ANTIFUNGAL ACTIVITY (MIC): RPMI 1640, 35° C.
Method: as §1

[11] = tested on: C. parapsilosis GC 3076; experiment: Antifungal activity, microtiter broth dilution MIC; conditions: 24-48 hours; for ANTIFUNGAL ACTIVITY (MIC): RPMI 1640, 35° C.
Method: as §1

[12] = tested on: C. pseudotropicalis 3070; experiment: Antifungal activity, microtiter broth dilution MIC; conditions: RPMI 1640, 35° C., 24-48 hours
Method: as §1

[13] = tested on: C. tropicalis GC 3080; experiment: Antifungal activity, microtiter broth dilution MIC; conditions: 24-48 hours; for ANTIFUNGAL ACTIVITY (MIC): RPMI 1640, 35° C.
Method: as §1

[14] = tested on: C. tropicalis GC 3081; experiment: Antifungal activity, microtiter broth dilution MIC; conditions: 24-48 hours; for ANTIFUNGAL ACTIVITY (MIC): RPMI 1640, 35° C.
Method: as §1

[15] = tested on: 3T3 (ovarian) tumor cell line; experiment: Antineoplastic activity, tumor cell growth inhibition (sulforhodamine B); conditions: 48 hours
Text: (§2) Antineoplastic activity for the compounds of this invention was confirmed by evaluating the antineoplastic activity of representative compounds of this invention (Compounds I-III) against six tumor cell lines in vitro. Briefly, tumor cells from six cell lines were placed in wells of a 96 well microtiter plate. The following tumor cell lines were used: 3T3 (ovarian), 3T3/H2N (ovarian—resistant to cis-platin), A431 (vulva epidermoid origin), SW620 (colon), SKBR3 (breast), and MDA-435 (breast). The tumors cells were grown in the presence of serial dilutions of the compound to be evaluated for 48 hours, and cell growth determined using a colorimetric procedure (sulforhrodamine B). The inhibition of growth was calculated compared to the number of cells at the time of test compound addition. Results are expressed as an IC50 (μg/ml); N/A indicates the compound was not evaluated against that cell line. The following IC50s was listed on Table 2.

[16] = tested on: 3T3/H2N (ovarian—resistant to cis-platin) tumor cell line; experiment: as above; conditions: 3T3/H2N cells, 48 hours
Text: as §2

[17] = tested on: A431 (vulva epidermoid origin) tumor cell line; experiment: as above; conditions: 48 hours; for Antineoplastic Activity (IC50): A431 cells
Text: as §2

[18] = tested on: MDA-435 (breast) tumor cell line; experiment: as above; conditions: MDA435 cells, 48 hours
Text: as §2

[19] = tested on: SKBR3 (breast) tumor cell line; experiment: as above; conditions: 48 hours; for Antineoplastic Activity (IC50): SKBR3 cells
Text: as §2

[20] = tested on: SW620 (colon) tumor cell line; experiment: as above; conditions: 48 hours; for Antineoplastic Activity (IC50): SW620 cells
Text: as §2

[21] = tested on: SH-SY5Y cells; experiment: Neuroregeneration activity, neurite outgrowth; conditions: aphidicolin pretreated, NGF plus test compound, mean ± SEM
Text: The neuroregeneration activity for the compounds of this invention was confirmed in a standard pharmacological test procedure by evaluating 1-oxo-rapamycin (Compound I) as representative compound of this invention, against SH-SY5Y cells in vitro [Gold et al., Exp Neurol 147: 269-278, 1997]. Briefly, SH-SY5Y cells were placed in 6-well plate treated with aphidicolin for 5 days followed by the test compounds using 6-well plates. For controls, wells were untreated, or treated with nerve growth factor (NGF) alone. Test wells were treated with NGF plus compound I or rapamycin. Cells were photographed at 168 hours. Analysis of neuritic lengths was performed on photographic prints using a Houston Instrument HI-PAD digitizing tablet connected to an IBM XT computer with appropriate software (Bioquant IV, R&M Biometrics, Nashville, Tenn.). Mean values for axonal areas were compared using by ANOVA (STATVIEW, Abacus Concepts, Inc., Berkeley, Calif. The following table summarizes the results that were obtained.

[22] = C. lusitaniae GC 3068, first listing (r26)

CO[C@H]1CC2CC[C@@H](C)[C@@](O)(O2)C(=O)C(=O)N2CCCC[C@H]2C(=O)O[C@H]([C@H](C)CC2CC[C@@H](O)[C@H](OC)C2)CC(=O)[C@H](C)/C=C(\C)[C@@H](O)[C@@H](OC)C(=O)[C@H](C)C[C@H](C)C(=O)C/C=C/C=C/1C (stereo partly drawn) [Compound I, 1-Oxo-rapamycin]
MIC ([1]; Aspergillus fumigatus, GC3092, read-out: ANTIFUNGAL ACTIVITY (MIC)): 64 µg/mL (≈ 68.8 µM) | MIC ([2]; Aspergillus niger, GC3091, RPMI 1640, 35° C.): 64 µg/mL (≈ 68.8 µM) | MIC ([3]; Aspergillus niger, GC6591, RPMI 1640, 35° C.): 64 µg/mL (≈ 68.8 µM) | MIC ([4]; Candida albicans, GC3064, RPMI 1640, 35° C.): 8 µg/mL (≈ 8.6 µM) | MIC ([5]; Candida albicans, GC3065, RPMI 1640, 35° C.): 2 µg/mL (≈ 2.15 µM) | MIC ([6]; Candida albicans, GC3066, RPMI 1640, 35° C.): 2 µg/mL (≈ 2.15 µM) | MIC [7]: 16 µg/mL (≈ 17.2 µM) | MIC ([8]; GC3068, C. lusitaniae GC 3068, first listing (r26), read-out: ANTIFUNGAL ACTIVITY (MIC)): 0.5 µg/mL (≈ 0.538 µM) | MIC ([8]; GC3068, read-out: ANTIFUNGAL ACTIVITY (MIC), C. lusitaniae GC 3068, second listing (r28)): 2 µg/mL (≈ 2.15 µM) | MIC ([9]; Lodderomyces parapsilosis, GC3074, RPMI 1640, 35° C.): 2 µg/mL (≈ 2.15 µM) | MIC ([10]; Lodderomyces parapsilosis, GC3075, RPMI 1640, 35° C.): 1 µg/mL (≈ 1.08 µM) | MIC ([11]; Lodderomyces parapsilosis, GC3076, RPMI 1640, 35° C.): 2 µg/mL (≈ 2.15 µM) | MIC ([12]; Kluyveromyces marxianus): 0.5 µg/mL (≈ 0.538 µM) | MIC ([13]; Candida tropicalis, GC3080, RPMI 1640, 35° C.): 2 µg/mL (≈ 2.15 µM) | MIC ([14]; Candida tropicalis, GC3081, RPMI 1640, 35° C.): 0.5 µg/mL (≈ 0.538 µM) | IC50 ([15]; Mus musculus, NIH3T3, 3T3 cells): 0.89 µg/mL (≈ 0.957 µM) | IC50 [16]: 2.3 µg/mL (≈ 2.47 µM) | IC50 ([17]; Homo sapiens, A-431, A431 cells): 6.2 µg/mL (≈ 6.67 µM) | IC50 [18]: 6 µg/mL (≈ 6.45 µM) | IC50 ([19]; Homo sapiens, SK-BR-3, SKBR3 cells): 3.6 µg/mL (≈ 3.87 µM) | IC50 ([20]; Homo sapiens, SW-620, SW620 cells): 12.7 µg/mL (≈ 13.7 µM) | Mean Neurite Lengths after 168 h, Neurite Length [21]: 233.7 ± 8.8 μm

CO[C@H]1CC2CC[C@@H](C)[C@@](O)(O2)C(=O)C(=O)N2CCCC[C@H]2C(=O)O[C@H]([C@H](C)CC2CC[C@@H](OC(=O)C(C)(CO)CO)[C@H](OC)C2)CC(=O)[C@H](C)/C=C(\C)[C@@H](O)[C@@H](OC)C(=O)[C@H](C)C[C@H](C)C(=O)C/C=C/C=C/1C (stereo partly drawn) [Compound II, 1-Oxorapamycin 42-ester with 3-Hydroxy-2-(hydroxymethyl)-2-methylpropionic acid]
ANTIFUNGAL ACTIVITY (MIC) [1]: 64 µg/mL | ANTIFUNGAL ACTIVITY (MIC) [2]: 32 µg/mL | ANTIFUNGAL ACTIVITY (MIC) [3]: 64 µg/mL | ANTIFUNGAL ACTIVITY (MIC) [4]: 8 µg/mL | ANTIFUNGAL ACTIVITY (MIC) [5]: 2 µg/mL | ANTIFUNGAL ACTIVITY (MIC) [6]: 2 µg/mL | ANTIFUNGAL ACTIVITY (MIC) [7]: 16 µg/mL | ANTIFUNGAL ACTIVITY (MIC) [8, 22]: 1 µg/mL | ANTIFUNGAL ACTIVITY (MIC) ([8]; C. lusitaniae GC 3068, second listing (r28)): 1 µg/mL | ANTIFUNGAL ACTIVITY (MIC) [9]: 2 µg/mL | ANTIFUNGAL ACTIVITY (MIC) [10]: 2 µg/mL | ANTIFUNGAL ACTIVITY (MIC) [11]: 1 µg/mL | ANTIFUNGAL ACTIVITY (MIC) [12]: 0.50 µg/mL | ANTIFUNGAL ACTIVITY (MIC) [13]: 1 µg/mL | ANTIFUNGAL ACTIVITY (MIC) [14]: 0.50 µg/mL | Antineoplastic Activity (IC50) ([15]; 3T3 cells): 0.84 µg/mL | Antineoplastic Activity (IC50) [16]: 3.0 µg/mL | Antineoplastic Activity (IC50) [17]: 5.5 µg/mL | Antineoplastic Activity (IC50) [18]: 2.8 µg/mL | Antineoplastic Activity (IC50) [19]: 1.7 µg/mL | Antineoplastic Activity (IC50) [20]: 8.7 µg/mL

CO[C@H]1CC2CC[C@@H](C)[C@@](O)(O2)C(=O)C(=O)N2CCCC[C@H]2C(=O)O[C@H]([C@H](C)CC2CC[C@@H](OCCO)[C@H](OC)C2)CC(=O)[C@H](C)/C=C(\C)[C@@H](O)[C@@H](OC)C(=O)[C@H](C)C[C@H](C)C(=O)C/C=C/C=C/1C (stereo partly drawn) [Compound III, 42-O-(2-Hydroxy)ethyl 1-oxorapamycin]
ANTIFUNGAL ACTIVITY (MIC) [1]: 2 µg/mL | ANTIFUNGAL ACTIVITY (MIC) [2]: >32 µg/mL | ANTIFUNGAL ACTIVITY (MIC) [3]: >32 µg/mL | ANTIFUNGAL ACTIVITY (MIC) [4]: 4 µg/mL | ANTIFUNGAL ACTIVITY (MIC) [5]: 2 µg/mL | ANTIFUNGAL ACTIVITY (MIC) [6]: 2 µg/mL | ANTIFUNGAL ACTIVITY (MIC) [7]: >32 µg/mL | ANTIFUNGAL ACTIVITY (MIC) [8, 22]: 2 µg/mL | ANTIFUNGAL ACTIVITY (MIC) [9]: 2 µg/mL | ANTIFUNGAL ACTIVITY (MIC) [10]: 2 µg/mL | ANTIFUNGAL ACTIVITY (MIC) [11]: 2 µg/mL | ANTIFUNGAL ACTIVITY (MIC) [12]: 2 µg/mL | ANTIFUNGAL ACTIVITY (MIC) [13]: 2 µg/mL | ANTIFUNGAL ACTIVITY (MIC) [14]: 2 µg/mL | Antineoplastic Activity (IC50) [17]: 0.48 µg/mL | Antineoplastic Activity (IC50) [19]: 0.038 µg/mL | Antineoplastic Activity (IC50) [20]: 1.9 µg/mL

From US6399625B1, “1-oxorapamycins” (Wyeth, priority 2000, dated 2002)
